Measurements as given in paper PMC2812660 (Biochemical and biophysical research communications, 2009).
*1 amine or outer side, *2 acyl side, *3 side chain or, on linkers, in order; H or OH if unused. Where a SMILES comes first, the peptide text is derived from it. The star is where a group is joined. AMC = Cc1cc(=O)oc2cc(N*)ccc12; Suc = O=C(CCC(=O)[*:2])[*:1]

Biological target: 20S proteasome (Oryctolagus cuniculus, UniProt G1T4Q9)
Experiment: fluorogenic chymotrypsin-like activity assay
Format: biochemical
Settings: chymotrypsin-like site; control incubation without added SAM/SAH

Cc1cc(=O)oc2cc(NC(=O)[C@H](Cc3ccc(O)cc3)NC(=O)[C@@H](NC(=O)[C@H](CC(C)C)NC(=O)[C@H](CC(C)C)NC(=O)CCC(=O)O)C(C)C)ccc12 [Suc-LLVY-AMC] (Suc-LLVY-{AMC})
fluorogenic chymotrypsin-like activity assay: activity was detected in vitro using the fluorogenic substrate Suc-LLVY-AMC
